Reference: PubChem BioAssay (NCI)
Where “and” joins values, the source holds several entries; their conditions need not be identical. Identical values can stand only once.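 All cell lines were grown in 96-well plates and treated with compound for 48 hours. GI50 marks 50% less growth. TGI denotes the concentration required for complete inhibition of growth.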

Legend:
Experiment in all cases: NCI-60 cell line screen, 48 h
[1] = test system: HOP-92 NSCLC
[2] = test system: UO-31 renal
[3] = test system: EKVX NSCLC
[4] = test system: SR leukemia
[5] = test system: HCC-2998 colon
[6] = test system: T-47D breast
[7] = test system: LOX IMVI melanoma
[8] = test system: RPMI-8226 leukemia
[9] = test system: SF-295 CNS
[10] = test system: HOP-62 NSCLC
[11] = test system: RXF 393 renal
[12] = test system: MALME-3M melanoma
[13] = test system: IGROV1 ovarian
[14] = test system: SF-268 CNS
[15] = test system: SK-MEL-5 melanoma
[16] = test system: HCT-116 colon
[17] = test system: SK-MEL-28 melanoma
[18] = test system: ACHN renal
[19] = test system: MCF7 breast
[20] = test system: OVCAR-5 ovarian
[21] = test system: KM12 colon
[22] = test system: SW-620 colon
[23] = test system: HS 578T breast
[24] = test system: CAKI-1 renal
[25] = test system: SNB-19 CNS
[26] = test system: HL-60(TB) leukemia
[27] = test system: MDA-MB-435
[28] = test system: PC-3 prostate
[29] = test system: BT-549 breast
[30] = test system: NCI-H23 lung
[31] = test system: OVCAR-8 ovarian
[32] = test system: K-562 leukemia
[33] = test system: SF-539 CNS
[34] = test system: HT29 colon
[35] = test system: M14 melanoma
[36] = test system: U251 CNS
[37] = test system: A549 NSCLC
[38] = test system: UACC-62 melanoma
[39] = test system: MDA-MB-231 breast
[40] = test system: OVCAR-3 ovarian
[41] = test system: SK-MEL-2 melanoma
[42] = test system: HCT-15 colon
[43] = test system: COLO 205 colon
[44] = test system: A498 renal
[45] = test system: NCI/ADR-RES ovarian
[46] = test system: CCRF-CEM leukemia
[47] = test system: UACC-257 melanoma
[48] = test system: NCI-H226 lung
[49] = test system: OVCAR-4 ovarian
[50] = test system: SK-OV-3 ovarian
[51] = test system: TK-10 renal
[52] = test system: NCI-H460 lung
[53] = test system: MOLT-4 leukemia
[54] = test system: NCI-H522 lung
[55] = test system: SNB-75 CNS
[56] = test system: 786-0 renal
[57] = test system: DU-145 prostate
[58] = test system: SN12C renal

CC(=O)c1c(-c2cccc3ccccc23)c(C#N)c(=S)n(C2OC(CO)C(O)C(O)C2O)c1-c1ccccc1 (stereo not drawn)
TGI [1]: > 100 µM
GI50 [2]: 5.09 µM and 1.59 µM
TGI [2]: 23.8 µM and 3.54 µM
TGI [3]: > 100 µM

Nc1ccccc1SCc1csc(-c2ccc(Cl)cc2)n1
TGI [4]: 29.9 µM
TGI [5]: 47.1 µM
TGI [6]: 23.4 µM
TGI [7]: 35.2 µM
TGI [8]: 44.7 µM
TGI [1]: 60.1 µM
TGI [9]: > 100 µM
TGI [10]: > 90.6 µM
TGI [11]: 60.4 µM
TGI [12]: 47 µM
TGI [13]: > 100 µM
TGI [14]: > 100 µM
TGI [15]: 28.7 µM
TGI [16]: > 100 µM
TGI [17]: > 94.5 µM
TGI [18]: 73.2 µM
TGI [19]: 71.8 µM
TGI [2]: 46.6 µM
TGI [20]: > 95.2 µM
TGI [21]: 47.4 µM
TGI [22]: > 100 µM
TGI [23]: > 91.5 µM
TGI [24]: > 100 µM
TGI [25]: > 100 µM
TGI [26]: 23.9 µM
TGI [27]: 37.8 µM
TGI [28]: > 71.5 µM
TGI [29]: 72.1 µM
TGI [30]: > 84.6 µM
TGI [31]: > 100 µM
TGI [32]: 63.9 µM
TGI [33]: 53.2 µM
TGI [34]: 46.2 µM
TGI [35]: 41.7 µM
TGI [36]: 60.1 µM
TGI [37]: > 100 µM
TGI [38]: > 64 µM
TGI [39]: 54.6 µM
TGI [40]: > 67.6 µM
TGI [41]: 35.2 µM
TGI [42]: > 82.1 µM
TGI [43]: 34.6 µM
TGI [44]: 55.9 µM
TGI [45]: 66.4 µM
TGI [3]: 86.9 µM
TGI [46]: 67.1 µM
TGI [47]: > 77.7 µM
TGI [48]: 62.5 µM
TGI [49]: > 77.1 µM
TGI [50]: > 89.6 µM
TGI [51]: > 100 µM
TGI [52]: > 77.2 µM
TGI [53]: 25 µM
TGI [54]: 31.1 µM
TGI [55]: > 100 µM
TGI [56]: 47.5 µM
TGI [57]: 99.1 µM
TGI [58]: 34.2 µM

CN(CCCCCl)P(=O)(OCCS(=O)(=O)CC(NC(=O)CCC(N)C(=O)O)C(=O)NC(C(=O)O)c1ccccc1)OCC1OC(n2cc(F)c(=O)[nH]c2=O)CC1O (stereo not drawn)
TGI [4]: > 90.9 µM
GI50 [6]: 5.65 µM
TGI [6]: > 100 µM
GI50 [7]: < 0.0127 µM
TGI [7]: 52.2 µM
TGI [8]: 1.48 µM
GI50 [9]: 0.0368 µM
TGI [9]: > 53.8 µM
GI50 [10]: < 0.01 µM
TGI [10]: 6.99 µM
GI50 [11]: 4 µM
TGI [11]: > 100 µM
GI50 [12]: 8.98 µM
TGI [12]: > 72.2 µM
GI50 [13]: 0.0884 µM
TGI [13]: > 100 µM
GI50 [14]: < 0.01 µM
GI50 [15]: 0.989 µM
TGI [15]: 15.9 µM
GI50 [16]: 0.161 µM
TGI [16]: 39.9 µM
GI50 [17]: 15.2 µM
TGI [17]: > 100 µM
GI50 [18]: < 0.01 µM
TGI [18]: 14 µM
GI50 [19]: < 0.01 µM
GI50 [2]: 0.0973 µM
TGI [2]: > 81.2 µM
GI50 [20]: > 27.4 µM
TGI [20]: > 100 µM
GI50 [21]: 13.3 µM
TGI [21]: > 78 µM
GI50 [22]: 1.28 µM
TGI [22]: > 64.4 µM
GI50 [23]: 5.89 µM
TGI [23]: 97.6 µM
GI50 [24]: 0.0177 µM
TGI [24]: 25.6 µM
GI50 [25]: 1.3 µM
TGI [25]: > 100 µM
GI50 [26]: 4.87 µM
TGI [26]: 31.3 µM
GI50 [27]: 2.27 µM
TGI [27]: > 100 µM
GI50 [28]: 0.882 µM
TGI [28]: > 36.1 µM
GI50 [29]: 15.3 µM
TGI [29]: > 94.7 µM
GI50 [30]: 0.27 µM
TGI [30]: > 33.7 µM
GI50 [31]: 0.274 µM
TGI [31]: > 100 µM
GI50 [32]: 1.81 µM
TGI [32]: > 100 µM
GI50 [33]: < 0.0105 µM
TGI [33]: 7.74 µM
GI50 [34]: 2.68 µM
TGI [34]: > 100 µM
GI50 [35]: 0.0647 µM
TGI [35]: 2.85 µM
GI50 [36]: < 0.0171 µM
TGI [36]: > 41.6 µM
GI50 [37]: < 0.0506 µM
TGI [37]: > 100 µM
GI50 [38]: > 100 µM
TGI [38]: > 100 µM
GI50 [39]: 8.96 µM
TGI [39]: 68.6 µM
GI50 [40]: 1.22 µM
TGI [40]: > 84.4 µM
GI50 [41]: > 49.7 µM
TGI [41]: > 100 µM
GI50 [42]: 1.32 µM
TGI [42]: 46.6 µM
GI50 [43]: 10.1 µM
TGI [43]: > 100 µM
TGI [44]: > 100 µM
GI50 [45]: 0.323 µM
TGI [45]: > 65.1 µM
GI50 [3]: 39.2 µM
TGI [3]: > 100 µM
GI50 [46]: < 0.0376 µM
TGI [46]: 33.1 µM
GI50 [47]: 4.58 µM
TGI [47]: > 100 µM
GI50 [48]: 0.628 µM
TGI [48]: > 100 µM
GI50 [49]: 8.27 µM
TGI [49]: > 100 µM
GI50 [50]: 41.3 µM
TGI [50]: > 100 µM
GI50 [51]: 0.944 µM
TGI [51]: > 21.4 µM
GI50 [52]: < 0.01 µM
GI50 [53]: 0.274 µM
TGI [53]: > 95.5 µM
GI50 [54]: 0.266 µM
TGI [54]: > 57.4 µM
GI50 [55]: 14.5 µM
TGI [55]: > 100 µM
GI50 [56]: 0.0155 µM
TGI [56]: 2.62 µM
GI50 [57]: 0.214 µM
TGI [57]: > 100 µM
GI50 [58]: 0.41 µM
TGI [58]: 16.9 µM
